Assay results as given in PubChem BioAssay (NCI).
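Briefly, cells in 96-well plates were exposed to five compound concentrations for 48 h, and endpoints were estimated by linear interpolation. TGI marks complete inhibition of growth.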

Experiments:
Experiment in all cases: NCI tumour cell line growth inhibition, 48 h
[1] = system: NCI-H460 lung
[2] = system: HT29 colon
[3] = system: OVCAR-3 ovarian
[4] = system: SF-268 CNS
[5] = system: UACC-257 melanoma
[6] = system: HCC-2998 colon
[7] = system: DU-145 prostate
[8] = system: MOLT-4 leukemia
[9] = system: HOP-62 NSCLC
[10] = system: SNB-19 CNS
[11] = system: UACC-62 melanoma
[12] = system: SW-620 colon
[13] = system: ACHN renal
[14] = system: PC-3 prostate
[15] = system: MDA-N
[16] = system: LOX IMVI melanoma
[17] = system: OVCAR-8 ovarian
[18] = system: HCT-116 colon
[19] = system: SK-MEL-5 melanoma
[20] = system: 786-0 renal
[21] = system: SN12C renal
[22] = system: EKVX NSCLC
[23] = system: COLO 205 colon
[24] = system: RXF 393 renal
[25] = system: RPMI-8226 leukemia
[26] = system: TK-10 renal
[27] = system: U251 CNS
[28] = system: UO-31 renal
[29] = system: MCF7 breast
[30] = system: CAKI-1 renal
[31] = system: HS 578T breast
[32] = system: OVCAR-5 ovarian
[33] = system: HOP-92 NSCLC
[34] = system: A549 NSCLC
[35] = system: K-562 leukemia
[36] = system: HCT-15 colon
[37] = system: SK-MEL-28 melanoma
[38] = system: BT-549 breast
[39] = system: SK-OV-3 ovarian
[40] = system: SF-295 CNS
[41] = system: MDA-MB-231 breast
[42] = system: OVCAR-4 ovarian
[43] = system: SF-539 CNS
[44] = system: NCI/ADR-RES ovarian
[45] = system: IGROV1 ovarian
[46] = system: CCRF-CEM leukemia
[47] = system: SR leukemia
[48] = system: SNB-75 CNS
[49] = system: NCI-H226 lung
[50] = system: A498 renal
[51] = system: MDA-MB-435
[52] = system: SK-MEL-2 melanoma
[53] = system: NCI-H23 lung
[54] = system: KM12 colon
[55] = system: HL-60(TB) leukemia
[56] = system: NCI-H522 lung
[57] = system: MALME-3M melanoma
[58] = system: M14 melanoma

With `CC(=O)NCCc1c(-c2[nH]c3ccccc3c2CCNC(C)=O)[nH]c2ccccc12` the TGI [1] was > 100 µM, the TGI [2] was > 100 µM and the TGI [3] was > 100 µM. The TGI [4] was > 100 µM, the TGI [5] was > 100 µM and the TGI [6] was > 100 µM. The TGI [7] was > 100 µM, the TGI [8] was > 100 µM and the TGI [9] was > 100 µM. For the same molecule, the TGI [10] was > 100 µM, the TGI [11] was > 100 µM and the TGI [12] was > 100 µM. For the same molecule, the TGI [13] was > 100 µM, the TGI [14] was > 100 µM and the TGI [15] was > 100 µM. The TGI [16] was > 100 µM, the TGI [17] was > 100 µM and the TGI [18] was > 100 µM. For the same molecule, the TGI [19] was > 100 µM, the TGI [20] was > 100 µM and the TGI [21] was > 100 µM. For the same molecule, the TGI [22] was > 100 µM, the TGI [23] was > 100 µM and the TGI [24] was > 100 µM. The TGI [25] was > 100 µM, the TGI [26] was > 100 µM and the TGI [27] was > 100 µM. The TGI [28] was > 100 µM, the TGI [29] was > 100 µM and the TGI [30] was > 100 µM. The TGI [31] was > 100 µM, the TGI [32] was > 100 µM and the TGI [33] was > 100 µM. The TGI [34] was > 100 µM, the TGI [35] was > 100 µM and the TGI [36] was > 100 µM. The TGI [37] was > 100 µM, the TGI [38] was > 100 µM and the TGI [39] was > 100 µM. For the same molecule, the TGI [40] was > 100 µM, the TGI [41] was > 100 µM and the TGI [42] was > 100 µM. For the same molecule, the TGI [43] was > 100 µM, the TGI [44] was > 100 µM and the TGI [45] was > 100 µM. For the same molecule, the TGI [46] was > 100 µM, the TGI [47] was > 100 µM and the TGI [48] was > 100 µM. The TGI [49] was > 100 µM, the TGI [50] was > 100 µM and the TGI [51] was > 100 µM. The TGI [52] was > 100 µM and the TGI [53] was > 100 µM.
In the case of `O=[N+]([O-])c1ccc2c(c1)Sc1ccccc1N2CCCCCl`, the TGI [1] is reported as > 100 µM, the TGI [2] is reported as > 100 µM and the TGI [3] is reported as > 100 µM. The TGI [4] was > 100 µM, the TGI [5] was > 100 µM and the TGI [6] was > 100 µM. The TGI [7] was > 100 µM, the TGI [8] was > 100 µM and the TGI [9] was > 100 µM. The TGI [10] was > 100 µM, the TGI [12] was > 100 µM and the TGI [13] was > 100 µM. For the same molecule, the TGI [14] was > 100 µM, the TGI [15] was > 100 µM and the TGI [16] was > 100 µM. The TGI [17] was > 100 µM, the TGI [18] was > 100 µM and the TGI [54] was > 100 µM. The TGI [19] was > 100 µM, the TGI [20] was > 100 µM and the TGI [21] was > 100 µM. For the same molecule, the TGI [22] was > 100 µM, the TGI [23] was > 100 µM and the TGI [55] was > 100 µM. For the same molecule, the TGI [24] was > 100 µM, the TGI [25] was > 100 µM and the TGI [26] was > 100 µM. The TGI [56] was > 100 µM, the TGI [27] was > 100 µM and the TGI [28] was > 100 µM. The TGI [29] was > 100 µM, the TGI [30] was > 100 µM and the TGI [31] was > 100 µM. The TGI [32] was > 100 µM, the TGI [33] was > 100 µM and the TGI [34] was > 100 µM. For the same molecule, the TGI [35] was > 100 µM, the TGI [36] was > 100 µM and the TGI [37] was > 100 µM. The TGI [38] was > 100 µM, the TGI [40] was > 100 µM and the TGI [41] was > 100 µM. For the same molecule, the TGI [42] was > 100 µM, the TGI [43] was > 100 µM and the TGI [44] was > 100 µM. The TGI [45] was > 100 µM, the TGI [46] was > 100 µM and the TGI [47] was > 100 µM. For the same molecule, the TGI [48] was > 100 µM, the TGI [49] was > 100 µM and the TGI [50] was > 100 µM. For the same molecule, the TGI [51] was > 100 µM and the TGI [53] was > 100 µM.
`CC(=O)O[C@H]1CC2C(C3CCC(C(C)CCC(=O)O)[C@]31C)[C@H](OC(C)=O)C[C@@H]1CC3(CC[C@]21C)OOC1(CC[C@]2(C)C4C[C@H](OC(C)=O)[C@]5(C)C(C(C)CCC(=O)O)CCC5C4[C@H](OC(C)=O)C[C@@H]2C1)OO3` (some centres not stated) was tested, and the TGI [2] was > 100 µM, the TGI [3] was 3.53 µM and the TGI [4] was 4.01 µM. For the same molecule, the TGI [5] was 4.68 µM, the TGI [6] was 3.8 µM and the TGI [7] was 4.48 µM. For the same molecule, the TGI [8] was 13.1 µM, the TGI [9] was 3.97 µM and the TGI [10] was > 100 µM. The TGI [12] was > 100 µM, the TGI [13] was 3.44 µM and the TGI [14] was 3.85 µM. It also gave a TGI [15] of 5.91 µM, a TGI [16] of 3.11 µM and a TGI [17] of 4.97 µM. The TGI [18] was 3.85 µM, the TGI [54] was 3.17 µM and the TGI [19] was 3.11 µM. It also gave a TGI [20] of 9.32 µM, a TGI [21] of 6.02 µM and a TGI [22] of 9.67 µM. The TGI [23] was 4.24 µM, the TGI [57] was 3.13 µM and the TGI [55] was 3.65 µM. For the same molecule, the TGI [25] was 14.7 µM, the TGI [26] was 6.8 µM and the TGI [56] was 3.03 µM. The TGI [27] was 2.59 µM, the TGI [28] was 3.32 µM and the TGI [29] was 12.3 µM. For the same molecule, the TGI [30] was 5.15 µM, the TGI [31] was 4.1 µM and the TGI [32] was 3.5 µM. The TGI [58] was 8.31 µM, the TGI [34] was 5.19 µM and the TGI [35] was > 100 µM. The TGI [36] was 6.39 µM, the TGI [37] was > 100 µM and the TGI [38] was 4.11 µM. The TGI [39] was 11.6 µM, the TGI [40] was 4.72 µM and the TGI [41] was 3.85 µM. For the same molecule, the TGI [42] was 9.84 µM, the TGI [44] was 26.7 µM and the TGI [45] was 4.25 µM. The TGI [46] was 9.87 µM, the TGI [47] was 9.55 µM and the TGI [49] was 4.21 µM. The TGI [51] was 4.31 µM, the TGI [52] was 3.64 µM and the TGI [53] was 4.08 µM.
